Patent US20230287044A1, “NOVEL ANTIBACTERIAL PEPTIDE AND USE THEREOF” (priority 2020, published 2023)
Converted amounts (≈) assume the structure as drawn. Read-outs that look alike come from different tables or passages of the source. Square brackets hold non-standard residues; d marks the D form. Peptide text beside a SMILES is read from it.

Key:
[1] = system: MRSA (S. aureus) KCCM 40510; type: cell-based, Staphylococcus aureus; settings: KCCM 40510, 18 h
In short: (§1)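 Mid-log cultures grown in CAMHB and diluted to 1× 10^6 cfu/ml in PBS were mixed with an equal volume of peptide in CAMHB (80 µM to 0.63 µM twofold dilutions). MIC taken as the mean of three independent experiments.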

[2] = Solubility of antibacterial peptides in solution; type: physicochemical
[3] = system: VRE (E. faecalis) ATCC 51575; type: cell-based, Enterococcus faecalis; settings: ATCC 51575, 18 h
In short: as §1

[4] = system: MRAB (A. baumannii) ATCC BAA 1605; type: cell-based, Acinetobacter baumannii; settings: ATCC BAA 1605, 18 h
In short: as §1

[5] = system: MRPA (P. aeruginosa) CCARM 2180; type: cell-based, Pseudomonas aeruginosa; settings: CCARM 2180, 18 h
In short: as §1

[6] = system: 30 species of Acinetobacter baumannii (A. baumannii); type: cell-based
Experimental: In addition, the results obtained by measuring the minimum inhibitory concentrations of KSH29, KSH42 and KSH43 against 30 species of Acinetobacter baumannii (A. baumannii) are shown in Table 4 below.
The minimum inhibitory concentrations (MIC) against the 30 species of Acinetobacter baumannii were measured in the following manner.
The strain 1605 was purchased from ATCC (American Type Culture Collection, USA). In addition, the strain 40203 was purchased from the Korean Culture Center of Microorganisms.
The COL^R refers to resistance to colistin, the TGC^R refers to resistance to tigecycline, and the TGC^I refers to tigecycline intermediate strains.

[7] = A. baumannii strain 102 (TGC^I)
[8] = A. baumannii strain 141 (TGC^R)
[9] = A. baumannii strain 147 (TGC^R)
[10] = A. baumannii strain 152 (TGC^R)
[11] = A. baumannii strain 40203 (Korean Culture Center of Microorganisms)
[12] = against 30 species of Acinetobacter baumannii

Row | Compound | MIC MRSA (S. aureus) KCCM 40510 [1] | solubility at 12 h ([2]; aqueous buffer) | solubility at 12 h ([2]; plasma or biological fluid) | solubility at 12 h ([2]; water) | MIC VRE (E. faecalis) ATCC 51575 [3] | MIC MRAB (A. baumannii) ATCC BAA 1605 [4] | MIC MRPA (P. aeruginosa) CCARM 2180 [5] | MIC ([6]; A. baumannii strain 1) | MIC ([6]; A. baumannii strain 6 (TGC^I)) | MIC ([6]; A. baumannii strain 10) | MIC ([6]; A. baumannii strain 14) | MIC ([6]; A. baumannii strain 15) | MIC ([6]; A. baumannii strain 16) | MIC ([6]; A. baumannii strain 19) | MIC ([6]; A. baumannii strain 22 (TGC^I)) | MIC ([6]; A. baumannii strain 39) | MIC ([6]; A. baumannii strain 44) | MIC ([6]; A. baumannii strain 66) | MIC ([6]; A. baumannii strain 68) | MIC ([6]; A. baumannii strain 69) | other results
1 | CC(C)[C@@H](NC(=O)[C@H](N)Cc1c[nH]c2ccccc12)C(=O)N[C@@H](C(=O)N[C@H](Cc1c[nH]c2ccccc12)C(=O)N[C@H](Cc1c[nH]c2ccccc12)C(=O)N[C@@H](C(=O)N[C@H](CCCNC(=N)N)C(=O)N[C@H](CCCNC(=N)N)C(=O)N[C@H](CCCNC(=N)N)C(N)=O)C(C)C)C(C)C [KSH40, wvvwwvrrr] (H-[dW][dV][dV][dW][dW][dV][dR][dR][dR]-NH2; N-terminus assumed) | 1.25 µM (≈ 1.68 µg/mL) | ≥ 100 µM | 100 µM (≈ 134 µg/mL) | > 2000 µM | 1.25 µM (≈ 1.68 µg/mL) | 1.25 µM (≈ 1.68 µg/mL) | 5 µM (≈ 6.71 µg/mL) | – | – | – | – | – | – | – | – | – | – | – | – | – | –
2 | CC(C)[C@@H](NC(=O)[C@H](N)Cc1c[nH]c2ccccc12)C(=O)N[C@@H](C(=O)N[C@H](Cc1c[nH]cn1)C(=O)N[C@@H](C(=O)N[C@@H](C(=O)N[C@H](Cc1c[nH]c2ccccc12)C(=O)N[C@H](CCCNC(=N)N)C(=O)N[C@H](CCCNC(=N)N)C(=O)N[C@H](CCCNC(=N)N)C(N)=O)C(C)C)C(C)C)C(C)C [KSH45, wvvhvvwrrr] (H-[dW][dV][dV][dH][dV][dV][dW][dR][dR][dR]-NH2; N-terminus assumed) | 1.25 µM (≈ 1.74 µg/mL) | > 200 µM | 50 µM (≈ 69.6 µg/mL) | > 2000 µM | 1.25 µM (≈ 1.74 µg/mL) | 1.25 µM (≈ 1.74 µg/mL) | 2.5 µM (≈ 3.48 µg/mL) | – | – | – | – | – | – | – | – | – | – | – | – | – | –
3 | Colistin [reference compound] | – | – | – | – | – | – | – | 0.63 µM | 2.5 µM | 2.5 µM | 1.25 µM | 0.63 µM | <0.31 µM | <0.31 µM | 1.25 µM | <0.31 µM | 1.25 µM | 1.25 µM | 0.63 µM | 1.25 µM | MIC ([6]; A. baumannii strain 3 (COL^R)): >40 µM; MIC ([6]; A. baumannii strain 71): 1.25 µM; MIC ([6]; A. baumannii strain 76): <0.31 µM; MIC ([6]; A. baumannii strain 80): 0.63 µM; MIC ([6]; A. baumannii strain 82): 0.63 µM; MIC ([6]; A. baumannii strain 86): 0.63 µM; MIC ([6]; A. baumannii strain 89): 2.5 µM; MIC [6, 7]: 0.63 µM; MIC ([6]; A. baumannii strain 127): 0.63 µM; MIC [6, 8]: <0.31 µM; MIC ([6]; A. baumannii strain 144): 0.63 µM; MIC [6, 9]: 5 µM; MIC [6, 10]: 1.25 µM; MIC ([6]; A. baumannii strain 1605 (ATCC)): 0.63 µM; MIC ([6]; A. baumannii strain 10087): 1.25 µM; MIC ([6]; A. baumannii strain 19606): 1.25 µM; MIC [6, 11]: 0.63 µM; solubility at 12 h ([2]; read-out: Solubility in solution CAMHB): >200 µM; solubility at 12 h ([2]; read-out: Solubility in solution H2O): >2000 µM; solubility at 12 h ([2]; read-out: Solubility in solution PBS): >200 µM
4 | CC[C@@H](C)[C@@H](NC(=O)[C@@H](Cc1c[nH]c2ccccc12)NC(=O)[C@H](NC(=O)[C@@H](CC(C)C)NC(=O)[C@H](N)Cc1c[nH]c2ccccc12)C(C)C)C(=O)N[C@H](Cc1c[nH]c2ccccc12)C(=O)N[C@H](CCCNC(=N)N)C(=O)N[C@H](CCCNC(=N)N)C(N)=O [KSH32, wlvwiwrr] (H-[dW][dL][dV][dW][dI][dW][dR][dR]-NH2; N-terminus assumed) | 1.25 µM (≈ 1.52 µg/mL) | 25 µM (≈ 30.3 µg/mL) | 50 µM (≈ 60.7 µg/mL) | > 2000 µM | 1.25 µM (≈ 1.52 µg/mL) | 1.25 µM (≈ 1.52 µg/mL) | >5 µM | – | – | – | – | – | – | – | – | – | – | – | – | – | –
5 | CC[C@@H](C)[C@@H](NC(=O)[C@@H](Cc1c[nH]c2ccccc12)NC(=O)[C@H](NC(=O)[C@@H](CC(C)C)NC(=O)[C@H](N)Cc1c[nH]c2ccccc12)C(C)C)C(=O)N[C@H](Cc1c[nH]c2ccccc12)C(=O)N[C@H](CCCNC(=N)N)C(=O)N[C@H](CCCNC(=N)N)C(=O)N[C@H](CCCNC(=N)N)C(N)=O [KSH29, wlvwiwrrr] (H-[dW][dL][dV][dW][dI][dW][dR][dR][dR]-NH2; N-terminus assumed) | – | ≥ 100 µM | 50 µM (≈ 68.5 µg/mL) | > 2000 µM | – | – | – | 1.25 µM (≈ 1.71 µg/mL) | 1.25 µM (≈ 1.71 µg/mL) | 1.25 µM (≈ 1.71 µg/mL) | 1.25 µM (≈ 1.71 µg/mL) | 1.25 µM (≈ 1.71 µg/mL) | 1.25 µM (≈ 1.71 µg/mL) | 1.25 µM (≈ 1.71 µg/mL) | 1.25 µM (≈ 1.71 µg/mL) | 1.25 µM (≈ 1.71 µg/mL) | 1.25 µM (≈ 1.71 µg/mL) | 1.25 µM (≈ 1.71 µg/mL) | 1.25 µM (≈ 1.71 µg/mL) | 1.25 µM (≈ 1.71 µg/mL) | MIC ([6]; A. baumannii strain 71): 1.25 µM (≈ 1.71 µg/mL); MIC ([6]; A. baumannii strain 76): 1.25 µM (≈ 1.71 µg/mL); MIC ([6]; A. baumannii strain 82): 1.25 µM (≈ 1.71 µg/mL); MIC ([6]; A. baumannii strain 89): 1.25 µM (≈ 1.71 µg/mL); MIC [6, 7]: 1.25 µM (≈ 1.71 µg/mL); MIC ([6]; A. baumannii strain 127): 1.25 µM (≈ 1.71 µg/mL); MIC [6, 8]: 1.25 µM (≈ 1.71 µg/mL); MIC ([6]; A. baumannii strain 144): 1.25 µM (≈ 1.71 µg/mL); MIC [6, 9]: 1.25 µM (≈ 1.71 µg/mL); MIC [6, 10]: 1.25 µM (≈ 1.71 µg/mL); MIC ([6]; A. baumannii strain 10087): 1.25 µM (≈ 1.71 µg/mL); MIC ([6]; A. baumannii strain 19606): 1.25 µM (≈ 1.71 µg/mL); MIC [6, 11]: 1.25 µM (≈ 1.71 µg/mL); MIC50 [6, 12]: 1.25 µM (≈ 1.71 µg/mL); MIC90 [6, 12]: 1.25 µM (≈ 1.71 µg/mL)
